# From PMC10892375, “Determination of the Cannabinoid CB1 Receptor’s Positive Allosteric Modulator Binding Site through Mutagenesis Studies” (Pharmaceuticals, 2024)
# Columns and labels:
# Format in all cases: cell-based
# hCB1 mutant F237A^4.46 = target: T1, hCB1 mutant F237A^4.46 (Homo sapiens, UniProt P21554, F237A); experiment: pIRES G protein dissociation BRET assay, F237A mutant; conditions: for G protein dissociation, AUC of 10 μM compound (maximal response): 10 μM ligand alone
# T1 construct: expressed in transfected cells; host or cells: HEK293
# T1 sequence (P21554 whole entry F237A): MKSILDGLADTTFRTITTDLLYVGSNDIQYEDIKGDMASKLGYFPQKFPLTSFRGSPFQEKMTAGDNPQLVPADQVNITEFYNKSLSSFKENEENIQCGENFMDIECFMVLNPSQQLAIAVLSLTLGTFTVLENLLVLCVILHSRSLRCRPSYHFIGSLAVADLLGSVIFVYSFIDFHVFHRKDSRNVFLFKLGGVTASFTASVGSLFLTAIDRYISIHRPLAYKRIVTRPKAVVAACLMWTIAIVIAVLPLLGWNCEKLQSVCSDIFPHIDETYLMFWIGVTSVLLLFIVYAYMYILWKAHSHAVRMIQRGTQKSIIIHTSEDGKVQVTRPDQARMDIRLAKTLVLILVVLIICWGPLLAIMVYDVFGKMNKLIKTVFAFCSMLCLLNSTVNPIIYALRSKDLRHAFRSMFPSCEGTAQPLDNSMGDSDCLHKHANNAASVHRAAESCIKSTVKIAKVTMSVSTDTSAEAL
# Protocol: (§1) Mutagenesis studies using the pIRES G protein dissociation assay were performed using human embryonic kidney 293 (HEK293) wild-type cells transiently transfected with pplss-3HA-hCB1 [31] or modified receptor. All cells were cultured in Dulbecco’s Modified Eagle’s Medium (DMEM) supplemented with 10% fetal bovine serum (FBS), grown in […] vented-cap flasks, and maintained in a 37° C incubator at 5% CO2.
# (§2) Mutants of pplss-3HA-hCB1 (WT, pEF-V4-HisA (pEF4a) construct) were generated using a modified QuikChange® (Stratagene, San Diego, CA, USA) site-directed mutagenesis approach using KAPA HiFi Hotstart Polymerase (KAPA Biosystems, Roche, Basel, Switzerland). Briefly, single-stranded primers used to modify one or two base pairs within the target amino acid using PCR were purchased from Integrated DNA Technologies (IDT, Coralville, IA, USA). All pplss-hCB1 mutants were generated using the pplss-3HA-hCB1 pEF4a as parental DNA. PCR products were generated using recommended cycling conditions and treated with Dpn1 (New England Biolabs, Ipswich, MA, USA) overnight at 37° C to digest methylated parental DNA. PCR products were electrophoresed and run on an agarose gel (1% (w.v^−1) agarose, HydraGene, Piscataway, NJ, USA) containing 0.25 μg/mL ethidium bromide (Sigma-Aldrich, St. Louis, MO, USA). Gels were run in 40 mM TRIS-acetate buffer containing […] (pH 8.3) at 100 V for 30 min, maximum current and included a 1kb+ DNA ladder (Invitrogen, Thermo Fisher Scientific, Carlsbad, CA, USA) for reference. Gels were imaged using an UVTech Alliance Q9 Mini transilluminator (UVTech Alliance, Cambridge, UK). Digested products were then used to transform NEB 5α competent E. coli cells in accordance with manufacturer’s instructions. Briefly, transformed PCR products were grown overnight on 8.5 mL Luria Broth agar plates (containing 100 μg/mL ampicillin) at 37° C. Single bacterial colonies were picked and inoculated in Luria Broth (containing 100 μg/mL ampicillin) and grown overnight in a shaking incubator at 37° C. Plasmids were then harvested and purified using a Qiagen miniprep kit (Qiagen, Hilden, Germany) and validated using sequencing (Genetics Analysis Service, University of Otago, Dunedin, New Zealand).
# (§3) Dissociation of the G protein heterotrimer, specifically Gαi1, Gβ1, and Gγ2, was investigated using a bioluminescence resonance energy transfer (BRET) assay with the pIRES biosensor first described by and adapted by.
# (§4) Briefly, 3 × 10^6 WT HEK293 cells were seeded into 10 cm culture dishes (Corning, Corning, NY, USA; one dish for the control receptor and one for each modified receptor) and incubated at 37 °C for 24 h to gain 50–60% confluency. Culture medium was then replaced and transfection mixtures containing 3 μg pIRES vector and 1 μg receptor (either pplss-hCB1 or modified receptor) were prepared (4 μg total DNA). Plasmids were initially diluted in sterile Milli-Q water before being diluted in OptiMEM reduced serum medium (Thermo Fisher Scientific, Waltham, MA, USA) and combined with […] polyethylenimine (PEI)-max (1:9 DNA:PEI-max ratio) and incubated at room temperature for 20 min. Transfection mixtures were then added to cells via dropwise addition, and cells were incubated at 37 °C for 24 h. Transfected cells were lifted and plated at 50,000 cells/well into poly-d-lysine (PDL; Sigma-Aldrich) coated white 96-well CulturPlates (PerkinElmer, Waltham, MA, USA) and incubated for a further 24 h at 37 °C.
# (§5) To assay, the culture medium was aspirated and cells were washed with phosphate buffered saline (PBS) and replaced with BRET assay medium (phenol red free DMEM containing 25 mM HEPES and supplemented with 1 mg/mL bovine serum albumin; BSA, MP Biomedicals, Auckland, New Zealand) for 30 min prior to drug addition (serum starve). Drugs were prepared at 10 × concentration in BRET assay medium, combined in a polypropylene V-bottom plate, and incubated at 37° C prior to drug stimulation.
# hCB1 mutant F191A^3.27 = target: T2, hCB1 mutant F191A^3.27 (Homo sapiens, UniProt P21554, F191A); experiment: pIRES G protein dissociation BRET assay, F191A mutant; conditions: for G protein dissociation, AUC of 10 μM compound (maximal response): 10 μM ligand alone; for Allosteric agonism: G protein dissociation in the absence of an orthosteric ligand: 10 μM, result in words
# T2 construct: expressed in transfected cells; host or cells: HEK293
# T2 sequence (P21554 whole entry F191A): as the sequence (P21554 whole entry F237A) above, with F191A, A237F counted along it
# Protocol: as §1, §2, §3, §4, §5
# WT hCB1 = target: T3, WT hCB1 (Homo sapiens, UniProt P21554); experiment: pIRES G protein dissociation BRET assay, WT hCB1; conditions: for Allosteric modulation of maximal CP55940-induced G protein dissociation / Effect on the potency of CP55940-induced G protein dissociation: 10 μM allosteric ligand; for Allosteric modulation of maximal CP55940-induced G protein dissociation / Effect on the potency of CP55940-induced G protein dissociation / Allosteric agonism: G protein dissociation in the absence of an orthosteric ligand: result in words; for G protein dissociation, AUC of 10 μM compound (maximal response): 10 μM ligand alone
# T3 construct: expressed in transfected cells; host or cells: HEK293
# T3 sequence (P21554 whole entry): as the sequence (P21554 whole entry F237A) above, with A237F counted along it
# Protocol: as §1, §3, §4
# To assay, the culture medium was aspirated and cells were washed with phosphate buffered saline (PBS) and replaced with BRET assay medium (phenol red free DMEM containing 25 mM HEPES and supplemented with 1 mg/mL bovine serum albumin; BSA, MP Biomedicals, Auckland, New Zealand) for 30 min prior to drug addition (serum starve). Drugs were prepared at 10 × concentration in BRET assay medium, combined in a polypropylene V-bottom plate, and incubated at 37° C prior to drug stimulation. Coelenterazine-h (Nanolight Technology, Prolume Ltd, Pinetop, AZ, USA) was prepared at 10 × concentration in BRET assay medium (final concentration 5 μM) and dispensed to cells immediately prior to drug stimulation. Plates were transferred to the LUMIstar Omega plate reader (BMG Labtech GmbH, Ortenburg, BW, Germany) and luminescence (475 and 535 nm) was detected simultaneously in the dark with BRET1 filters for approximately 5 min to establish a baseline BRET ratio. Drugs were added to cells, plates were returned to the LUMIstar and luminescence was detected for a further 25 min. BRET ratios (475/535) were calculated in Omega MARS software v 3.32, exported, and data were analysed using GraphPad Prism v8. Baseline correction was performed using an in-built function in GraphPad Prism, subtracting vehicle BRET ratios from matched conditions. Area under the curve (AUC) analysis was performed in GraphPad Prism using an in-built function to obtain concentration response data.
# All data analysis was performed using GraphPad Prism v8. Sigmoidal concentration series were generated by performing AUC analysis and fit using three-parameter nonlinear regression curves. Statistical analyses were performed using data interpolated from nonlinear regression curves using parameters derived from five independent biological replicates. Both one- and two-way repeated measures ANOVA and paired t-tests were used where appropriate (specified in-text), and posthoc tests, specified in text, were performed when significance was reached (p < 0.05). Time course data presented in this manuscript are pooled data (n = 5) and expressed as mean ± SEM. Concentration response data are representative, data expressed as mean ± SD from technical triplicates, to avoid misestimation of parameters from combined/pooled data.
# hCB1 mutant R148A^12.51 = target: T4, hCB1 mutant R148A^12.51 (Homo sapiens, UniProt P21554, R148A); experiment: pIRES G protein dissociation BRET assay, R148A mutant; conditions: for Increase in the potency of CP55940-induced G protein dissociation: 10 μM allosteric ligand; for G protein dissociation, AUC of 10 μM compound (maximal response): 10 μM ligand alone
# T4 construct: expressed in transfected cells; host or cells: HEK293
# T4 sequence (P21554 whole entry R148A): as the sequence (P21554 whole entry F237A) above, with R148A, A237F counted along it
# Protocol: as §1, §2, §3, §4, §5
# hCB1 mutant R220A^3.56 = target: T5, hCB1 mutant R220A^3.56 (Homo sapiens, UniProt P21554, R220A); experiment: pIRES G protein dissociation BRET assay, R220A mutant; conditions: for G protein dissociation, AUC of 10 μM compound (maximal response): 10 μM ligand alone
# T5 construct: expressed in transfected cells; host or cells: HEK293
# T5 sequence (P21554 whole entry R220A): as the sequence (P21554 whole entry F237A) above, with R220A, A237F counted along it
# Protocol: as §1, §2, §3, §4, §5
# [1] = 10 μM CP55940 in the presence of 10 μM ZCZ011
# [2] = in the presence of 10 μM GAT228
# [3] = in the presence of 10 μM GAT229
# [4] = top of the curve (maximal response)
SMILES,"G protein dissociation, AUC of 10 μM compound (maximal response) (hCB1 mutant F237A^4.46)","G protein dissociation, AUC of 10 μM compound (maximal response) (hCB1 mutant F191A^3.27)","G protein dissociation, AUC of 10 μM compound (maximal response) (hCB1 mutant R220A^3.56)",Allosteric agonism: G protein dissociation in the absence of an orthosteric ligand (hCB1 mutant F191A^3.27),Allosteric modulation of maximal CP55940-induced G protein dissociation (WT hCB1),Effect on the potency of CP55940-induced G protein dissociation (WT hCB1),"G protein dissociation, AUC of 10 μM compound (maximal response) (WT hCB1)",Allosteric agonism: G protein dissociation in the absence of an orthosteric ligand (WT hCB1),Increase in the potency of CP55940-induced G protein dissociation (hCB1 mutant R148A^12.51),"G protein dissociation, AUC of 10 μM compound (maximal response) (hCB1 mutant R148A^12.51)",other results
CCCCCCC(C)(C)c1ccc([C@@H]2C[C@H](O)CC[C@H]2CCCO)c(O)c1 [CP55940],−69.8 ± 6.5,−117.8 ± 7.5,−112.1 ± 2.9,–,–,–,–,–,–,–,"G protein dissociation, AUC, 10 μM CP55940 + 10 μM ZCZ011 (hCB1 mutant F237A^4.46; [1]): −85.2 ± 9.9; EMAX, CP55940 + 10 μM GAT228 (hCB1 mutant F237A^4.46; [2]): −69.4 ± 6.4 ∆BRET.sec; EMAX, CP55940 + 10 μM GAT229 (hCB1 mutant F237A^4.46; [3]): −67.4 ± 8.3 ∆BRET.sec; EMAX, CP55940 Alone (hCB1 mutant F237A^4.46; [4]): −69.8 ± 6.7 ∆BRET.sec; G protein dissociation, AUC, 10 μM CP55940 + 10 μM ZCZ011 (hCB1 mutant F191A^3.27; [1]): −134.7 ± 12.4; EMAX, CP55940 + 10 μM GAT228 (hCB1 mutant F191A^3.27; [2]): −123.9 ± 7.4 ∆BRET.sec; EMAX, CP55940 + 10 μM GAT229 (hCB1 mutant F191A^3.27; [3]): −119.1 ± 7.8 ∆BRET.sec; EMAX, CP55940 Alone (hCB1 mutant F191A^3.27; [4]): −117.3 ± 6.1 ∆BRET.sec; G protein dissociation, AUC, 10 μM CP55940 + 10 μM ZCZ011 (WT hCB1; [1]): −215.9 ± 2.9; EMAX, CP55940 + 10 μM GAT228 (WT hCB1; [2]): −194.2 ± 7.3 ∆BRET.sec; EMAX, CP55940 + 10 μM GAT229 (WT hCB1; [3]): −205.1 ± 7.8 ∆BRET.sec; EMAX, CP55940 Alone (WT hCB1; [4]): −184.1 ± 3.8 ∆BRET.sec; G protein dissociation, AUC, 10 μM CP55940 + 10 μM ZCZ011 (hCB1 mutant R148A^12.51; [1]): −237.3 ± 11.6; EMAX, CP55940 + 10 μM GAT228 (hCB1 mutant R148A^12.51; [2]): −218.2 ± 8.5 ∆BRET.sec; EMAX, CP55940 + 10 μM GAT229 (hCB1 mutant R148A^12.51; [3]): −243.9 ± 5.4 ∆BRET.sec; EMAX, CP55940 Alone (hCB1 mutant R148A^12.51; [4]): −175.6 ± 11.4 ∆BRET.sec; G protein dissociation, AUC, 10 μM CP55940 + 10 μM ZCZ011 (hCB1 mutant R220A^3.56; [1]): −137.8 ± 5.0; EMAX, CP55940 + 10 μM GAT228 (hCB1 mutant R220A^3.56; [2]): −140.1 ± 13.5 ∆BRET.sec; EMAX, CP55940 + 10 μM GAT229 (hCB1 mutant R220A^3.56; [3]): −144.6 ± 10.4 ∆BRET.sec; EMAX, CP55940 Alone (hCB1 mutant R220A^3.56; [4]): −110.8 ± 2.8 ∆BRET.sec"
O=[N+]([O-])C[C@H](c1ccccc1)c1c(-c2ccccc2)[nH]c2ccccc12 [GAT228],−40.8 ± 2.8,19.5 ± 11.9,−85.2 ± 13.6,abolished,did not alter CP55940-induced G protein dissociation,small but significant decrease in the potency of CP55940,−105.7 ± 7.2,increased wild-type G protein dissociation,less than 0.5 log units,−102.7 ± 11.8,–
O=[N+]([O-])C[C@@H](c1ccccc1)c1c(-c2ccccc2)[nH]c2ccccc12 [GAT229],−52.4 ± 5.2,22.1 ± 6.4,−102.9 ± 9.9,abolished,increased maximal CP55940-induced G protein dissociation,Neither GAT229 nor GAT228 increased the potency,−148.6 ± 7.2,increased wild-type G protein dissociation,less than 0.5 log units,−148.5 ± 7.7,–
"Cc1ccc2c(C(C[N+](=O)[O-])c3cccs3)c(-c3ccccc3)[nH]c2c1 (stereo not drawn) [ZCZ011, 6-Methyl-3-(2-nitro-1-(thiophen-2-yl)ethyl)-2-phenyl-1 H-indole]",−64.2 ± 4.1,35.0 ± 8.4,−95.7 ± 7.7,abolished,increased maximal CP55940-induced G protein dissociation,–,−167.3 ± 3.2,increased wild-type G protein dissociation,–,−150.1 ± 10.2,–
